A short description of one data set: in vivo. The settings on record: female, C57BL/6, mouse, po.
For another data set, the system named is IFN-γ production. The data set is described as follows: IFN-γ production in the mixed leukocyte response (MLR). Type of data set: cell-based. The settings on record: MLR of allogeneic PBMC, 5 days, ELISA; for IC50: 120 h, read-out: INF-γ IC50. Here is the method:
Immature dendritic cells (DC) were prepared as described in Romani, N. et al., J. Immunol. Meth.
Background: An ELISA detects its analyte on a solid surface through an enzyme-linked reagent.

The test system of another data set is RT4. The data set is described as follows: Proliferation assay, bladder cancer cell line RT4. As to conditions: Homo sapiens, RT-4; 72 h culture, CyQuant proliferation assay. Type of data set: cell-based. The procedure: (§1) Bladder cancer cell lines (T24, RT112, HT1376 and RT4 are human bladder cancer cell lines; NHEK are normal human keratinocytes) were obtained from the European Collection of Cell Cultures (Salisbury, UK). […] After a further 72 h of culture, cell proliferation was measured using a fluorescence-based proliferation assay kit. (CyQuant Cell Proliferation Assay Kit, Molecular Probes, Eugene, Oreg., USA). The IC50 was calculated from the regression curve of the titration data.

Another data set relates to RT112. The data set is described as follows: Proliferation assay, bladder cancer cell line RT112. Type of data set: cell-based. The settings on record: Homo sapiens, RT-112; 72 h culture, CyQuant proliferation assay. Here is the method:
as §1

The subject of the next data set is HL-60 cells. Put plainly: HL-60 (CD14) cell differentiation. The data set is classed as cell-based. As to conditions: Homo sapiens, HL-60 cell differentiation, read-out: HL-60(CD14) ED50.
Another data set has as its system ECV. The data set is described as follows: Proliferation assay, bladder cancer cell line ECV. Type of data set: cell-based. As to conditions: Homo sapiens; 72 h culture, CyQuant proliferation assay.
In data set [1] the test system is renin mRNA in As4.1hVDR cells. The data set is described as follows: Renin suppression assay (renin mRNA, Northern blot). The settings on record: 10^−10, 10^−9 and 10^−8 M, 24 hours.
In a further data set the test system is NHEK. The data set is described as follows: Proliferation assay, normal human keratinocytes NHEK. The data set is classed as cell-based. As to conditions: 72 h culture, CyQuant proliferation assay. The procedure: as §1
The target in the next data set is T1, VDR (Homo sapiens, UniProt P11473).
T1 sequence (P11473 1-427): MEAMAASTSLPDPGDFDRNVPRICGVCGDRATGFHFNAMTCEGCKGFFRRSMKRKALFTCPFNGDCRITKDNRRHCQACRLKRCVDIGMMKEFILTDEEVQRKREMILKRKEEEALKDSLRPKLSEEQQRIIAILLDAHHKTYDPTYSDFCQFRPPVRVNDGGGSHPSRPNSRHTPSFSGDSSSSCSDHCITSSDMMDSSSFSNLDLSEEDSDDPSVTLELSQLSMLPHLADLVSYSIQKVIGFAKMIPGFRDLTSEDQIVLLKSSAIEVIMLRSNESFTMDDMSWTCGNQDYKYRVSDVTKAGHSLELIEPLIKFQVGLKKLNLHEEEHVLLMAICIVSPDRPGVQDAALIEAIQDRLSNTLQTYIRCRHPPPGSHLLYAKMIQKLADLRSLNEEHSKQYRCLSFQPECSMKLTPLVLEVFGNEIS
The data set is described as follows: VDR binding. As to conditions: 1,25(OH)2D3 100.0.

In another data set the test system is HT 1376. The data set is described as follows: Proliferation assay, bladder cancer cell line HT 1376. Type of data set: cell-based. The settings on record: Homo sapiens, 72 h culture, CyQuant proliferation assay. The procedure:
as §1

The subject of data set [2] is ILT3 expression on monocyte-derived immature dendritic cells. Put plainly: ILT3 upregulation on monocyte-derived immature dendritic cells (flow cytometry). Type of data set: cell-based, human. As to conditions: 24 hours; for upregulation of ILT3 expression: graded doses, up to 1000 nM. Here is the method: Immature dendritic cells (DC) were prepared as described in Romani, N. et al., (1996) J. Immunol. Meth. 196:137). Briefly, peripheral blood mononuclear cells (PBMCs) were obtained from a buffy coat by ficoll-hypaque gradient (Pharmacia Biotec AB, Upsala, Sweden) and monocytes isolated from PBMCs by negative selected with a monocyte isolation kit (Milteny, Biotech, Bergish Gladblach, Germany). After isolation, monocytes were cultured for 6 to 7 days at a cell density of 1-2×106 in RPMI medium supplemented with 5% FetalClone I (Hyclone Laboratories, Logan, Utah) 2 mM L-glutamine, […], 1 mM sodium pyruvate and 1% nonessential amino acids, containing 800 U/ml GM-CSF (Mielogen 300, Schering-Plough) and 10 ng/ml interleukin (IL)-4 (PharMingen, San Diego, Calif.). Every other day, approximately 20% of the medium was removed and replaced by the same volume of fresh medium containing GM-CSF and IL-4.
Immunoglobulin-like transcript-3 upregulation was evaluated by flow cytometric analysis. Briefly, cells were preincubated with […] human IgG (Sigma Chemical, St. Louis, Mo.) and subsequently stained with anti-human ILT3 antibody (see, e.g., Cella, M. et al. (1997) J. Exp. Med. 185:1743) followed by anti-mouse IgG-phycoerithryn (Jackson). Cells were then analyzed with a FACScanR flow cytometer using a Cell QuestR software program (both from Beckton Dickinson, Mountain View, Calif.).
On the technique in general: A flow cytometer gives signals particle by particle.

Marks after values point to notes of the source that are not given here. Where only a bound is given, the exact number is not on record here.

`[2H]C([2H])([2H])C(O)(CCC[C@@H](CC#CC(O)(C(F)(F)F)C(F)(F)F)C1CCC2/C(=C/C=C3C[C@@H](O)C[C@H](O)C3)CCC[C@@]21C)C([2H])([2H])[2H]` (stereo partly drawn) [Compound 39, 1,25-Dihydroxy-21(3-hydroxy-3-trifluoromethyl-4-trifluoro-butynyl)-26,27-hexadeutero-19-nor-20S-cholecalciferol]: the MTD in the data set “in vivo” worked out at 0.0003 mg/kg. Further, the IC50 (as a rule, the concentration that gives 50% inhibition) in the data set on IFN-γ production turned out to be 0.062 nM; in the data set on RT4 it was 2.2 µM; in the data set on RT112 it was 7 µM.
On to `C=C1/C(=C\C=C2/CCC[C@]3(C)[C@@H]([C@@H](CCCC(C)(C)O)CC[C@@H](O)C(C)(C)O)CC[C@@H]23)C[C@@H](O)C[C@@H]1O` [Compound 2, 1,25-Dihydroxy-21-(2R,3-dihydroxy-3-methyl-butyl)-20S-cholecalciferol], for which the EC50 with HL-60 cells was found to be 0.0093 µM. In addition, the IC50 in the data set with ECV stood at 69.4 µM; with IFN-γ production it was 0.549 nM; with NHEK, 37.2 µM; in the data set on RT4, 62 µM; with RT112, 1 µM. Moreover, the “renin suppression activity compared with 1,25(OH)2D3” value in data set [1] is given as “more potent in suppressing renin expression than 1,25(OH)2D3”. Moreover, the MTD in “in vivo” amounted to 0.03 mg/kg. In addition, the “VDR Binding” value on VDR was 0.95**.
In the case of `[2H]C([2H])([2H])C(O)(CCC[C@@H](CC#CC(O)(C(F)(F)F)C(F)(F)F)C1CCC2/C(=C/C=C3/C[C@@H](O)C[C@H](O)C3=C)CCC[C@@]21C)C([2H])([2H])[2H]` (stereo partly drawn) [Compound 40, 1,25-Dihydroxy-21-(3-hydroxy-3-trifluoromethyl-4-trifluoro-butynyl)-26,27-hexadeutero-20S-cholecalciferol], the MTD in “in vivo” was 0.0001 mg/kg. In addition, the IC50 in the data set with IFN-γ production was 0.062 nM; in the data set with RT4, 2.2 µM; in the data set with RT112, 6.4 µM.
`CC(C)(O)CCC[C@@H](CC[C@@H](O)C(C)(C)O)[C@H]1CC[C@H]2/C(=C/C=C3C[C@@H](O)C[C@H](O)C3)CCC[C@]12C` [Compound 38, 1,25-Dihydroxy-21-(2R,3-dihydroxy-3-methyl-butyl)-20S-19-nor-cholecalciferol]: the IC50 with ECV is 99.2 µM; with IFN-γ production, 3.86 nM; in the data set on NHEK, 57 µM; in the data set with HT 1376, more than 100 µM; in the data set on RT4 it was 72 µM; with RT112, 44 µM. For the same compound, in “in vivo”, the MTD is more than 0.3 mg/kg.
Consider `C=C1/C(=C\C=C2/CCC[C@@]3(C)C2CC[C@@H]3[C@H](CC#CC(O)(C(F)(F)F)C(F)(F)F)CCCC(C)(C)O)CC(O)C[C@@H]1O` (stereo partly drawn) [Compound 4, 1,25-Dihydroxy-21-(3-hydroxy-3-trifluoromethyl-4-trifluoro-butynyl)-20S-cholecalciferol], for which the “renin suppression activity compared with 1,25(OH)2D3” value in data set [1] was “more potent in suppressing renin expression than 1,25(OH)2D3”.
For `C=C1/C(=C\C=C2/CCC[C@]3(C)[C@@H]([C@H](C)CCCC(C)(C)O)CC[C@@H]23)C[C@@H](O)C[C@@H]1O` [1,25(OH)2D3, reference compound], the EC50 with HL-60 cells came out at 0.00137 µM. Besides, the IC50 in the data set on IFN-γ production came to 0.029 nM; in the data set on NHEK, 4.9 µM; in the data set on HT 1376 it was 50 µM; in the data set on RT4, 45 µM; in the data set on RT112, 19 µM. In addition, the “down regulation of INF-γ (class symbol)” value in the data set on IFN-γ production is reported as “* (good down regulation of INF-γ (e.g., less than 100 IC50 pM))”.
As to `COc1c(C)c2c(c(O)c1C/C=C(\C)CCC(=O)OCCN1CCOCC1)C(=O)OC2` [Mycophenolate Mofetil, reference compound], the “upregulation of ILT3 expression” value in data set [2] is on record as “fail to upregulate ILT3 expression at any concentration tested”.
Turning to `CC(C)(O)CCC[C@@H](CC#CC(O)(C(F)(F)F)C(F)(F)F)[C@H]1CCC2/C(=C/C=C3/CC(O)C[C@H](O)C3)CCC[C@@]21C` (stereo partly drawn) [Compound 6, 1,25-Dihydroxy-21-(3-hydroxy-3-trifluoromethyl-4-trifluoro-butynyl)-20S-19-nor-cholecalciferol], the “renin suppression activity compared with 1,25(OH)2D3” value in data set [1] is “more potent in suppressing renin expression than 1,25(OH)2D3”.
On to `C=C1/C(=C\C=C2/CCC[C@]3(C)[C@@H]([C@@H](CCCC(C)(C)O)CC[C@@H](O)C(C)(C)O)CC[C@@H]23)C[C@@H](O)C[C@@H]1O` (stereo in doubt) [Compound 2, 1,25-Dihydroxy-21-(2R,3-dihydroxy-3-methyl-butyl)-20S-cholecalciferol], for which the “ILT3 mean fluorescence intensity” value in data set [2] (1 nM of compound) turned out to be 260. Besides, the figures for the “upregulation of ILT3 expression” value in data set [2] (listed as 1,24R,25-trihydroxy-20R-21-(3-hydroxy-3-methylbutyl)) and in data set [2] (listed as ix) were “very favourable upregulation” and “greatest upregulation of ILT3”, respectively.
In turn, `CC(C)(O)CCC[C@@H](CCC(=O)C(C)(C)O)[C@H]1CC[C@H]2/C(=C/C=C3C[C@@H](O)C[C@H](O)C3)CCC[C@]12C` [Compound 12, 1,25-Dihydroxy-20S-21-(3-hydroxy-3-methyl-butyl)-24-keto-19-nor-cholecalciferol] had an MTD in the data set “in vivo” of 0.03 mg/kg. The IC50 in the data set with IFN-γ production is 2.97 nM; in the data set on RT4 it was 2.6 µM; with RT112, more than 30 µM.
Turning to `C=C1/C(=C\C=C2/CCC[C@@]3(C)C2CC[C@@H]3C(CCCC(C)(C)O)CCCC(C)(C)O)CC(O)C[C@@H]1O` (some centres unmarked) [Compound 1, 1,25-Dihydroxy-21-(3-hydroxy-3-methyl-butyl)-cholecalciferol, reference compound], the EC50 in the data set with HL-60 cells is 0.00034 µM. Besides, in [1], the “renin suppression activity compared with 1,25(OH)2D3” value was “comparable to that of 1,25(OH)2D3”. Further, the MTD in the data set “in vivo” was determined as 0.003 mg/kg. Moreover, in the data set on IFN-γ production, the IC50 came to 0.022 nM and the “down regulation of INF-γ (class symbol)” value is “* (good down regulation of INF-γ (e.g., less than 100 IC50 pM))”. The “VDR Binding” value at VDR is listed as 38.0**.
`C=C1/C(=C\C=C2/CCC[C@]3(C)[C@@H]([C@@H](CCCC(C)(C)O)CCC(=O)C(C)(C)O)CC[C@@H]23)C[C@@H](O)C[C@@H]1O` [Compound 14, 1,25-Dihydroxy-20S-21-(3-hydroxy-3-methyl-butyl)-24-keto-cholecalciferol] had an MTD in “in vivo” of 0.03 mg/kg. For the same compound, the values for the IC50 in the data set on IFN-γ production, in the data set on RT4 and in the data set with RT112 were 0.35 nM, 8.3 µM and 25.5 µM, respectively.
As to `CC(C)(O)CCCC(CC#CC(O)(C(F)(F)F)C(F)(F)F)[C@H]1CCC2/C(=C/C=C3/CC(O)C[C@H](O)C3)CCC[C@@]21C` (stereo partly drawn) [Compound 5, 1,25-Dihydroxy-21-(3-hydroxy-3-trifluoromethyl-4-trifluoro-butynyl)-20R-19-nor-cholecalciferol], the “renin suppression activity compared with 1,25(OH)2D3” value in [1] is “comparable to that of 1,25(OH)2D3”.
On to `C=C1/C(=C\C=C2/CCC[C@@]3(C)C2CC[C@@H]3C(CC#CC(O)(C(F)(F)F)C(F)(F)F)CCCC(C)(C)O)CC(O)C[C@@H]1O` (stereo partly drawn) [Compound 11, 1,25-Dihydroxy-21-(3-hydroxy-3-trifluoromethyl-4-trifluorobutynyl)-20R-cholecalciferol], for which the “renin suppression activity compared with 1,25(OH)2D3” value in data set [1] is listed as “comparable to that of 1,25(OH)2D3”.

For the origin of these results see patent US20080280859A1, “GEMINI VITAMIN D3 COMPOUNDS AND METHODS OF USE THEREOF” (BioXell S.p.A., priority 2005, published 2008).
